In the kinase profiling compilation of Christmann-Franck et al. (2016):

How the values were obtained:
Test in all cases: radiometric filter-binding kinase assay, Kinase HotSpot
Conditions in all cases: compound 0.5 µM; ATP 10 µM
PRKCG (human) = PRKCG (human) (UniProt P05129)
MERTK (human) = MERTK (human) (UniProt Q12866)
FGR (human) = FGR (human) (UniProt P09769)
NTRK1 (human) = NTRK1 (human) (UniProt P04629)
KIT (human) = KIT (human) (UniProt P10721)
GRK4 (human) = GRK4 (human) (UniProt P32298)
EPHA8 (human) = EPHA8 (human) (UniProt P29322)
EPHA8 (human), sequence (P29322 whole entry, looked up): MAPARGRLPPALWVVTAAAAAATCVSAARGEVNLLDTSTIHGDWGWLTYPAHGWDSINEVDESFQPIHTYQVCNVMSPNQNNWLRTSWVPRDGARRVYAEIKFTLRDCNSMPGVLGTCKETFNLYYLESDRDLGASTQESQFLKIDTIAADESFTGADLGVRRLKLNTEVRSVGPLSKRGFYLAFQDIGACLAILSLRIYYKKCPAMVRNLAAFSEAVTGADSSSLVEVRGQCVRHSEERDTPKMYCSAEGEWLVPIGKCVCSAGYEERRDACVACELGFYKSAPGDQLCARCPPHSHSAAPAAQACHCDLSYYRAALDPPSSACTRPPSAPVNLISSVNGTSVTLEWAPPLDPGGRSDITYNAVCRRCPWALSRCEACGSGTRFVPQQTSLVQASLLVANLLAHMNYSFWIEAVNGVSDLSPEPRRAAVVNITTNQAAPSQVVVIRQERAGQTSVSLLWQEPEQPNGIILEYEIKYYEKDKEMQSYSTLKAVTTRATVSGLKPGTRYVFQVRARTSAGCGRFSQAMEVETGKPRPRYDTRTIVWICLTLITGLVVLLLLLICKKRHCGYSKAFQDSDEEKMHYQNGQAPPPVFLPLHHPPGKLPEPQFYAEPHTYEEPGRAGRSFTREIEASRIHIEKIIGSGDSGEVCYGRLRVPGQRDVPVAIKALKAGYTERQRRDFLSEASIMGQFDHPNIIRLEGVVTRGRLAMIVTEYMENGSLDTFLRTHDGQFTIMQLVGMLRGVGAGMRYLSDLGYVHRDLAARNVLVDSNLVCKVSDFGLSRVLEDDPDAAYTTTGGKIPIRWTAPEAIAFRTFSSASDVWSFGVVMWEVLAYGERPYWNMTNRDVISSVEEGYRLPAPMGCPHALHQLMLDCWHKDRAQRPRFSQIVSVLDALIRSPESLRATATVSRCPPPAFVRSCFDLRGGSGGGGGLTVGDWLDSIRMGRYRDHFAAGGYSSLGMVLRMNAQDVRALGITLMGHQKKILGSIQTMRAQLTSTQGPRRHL

TEK (human) = TEK (human) (UniProt Q02763)
AXL (human) = AXL (human) (UniProt P30530)
PIM2 (human) = PIM2 (human) (UniProt Q9P1W9)
PIM2 (human), sequence (Q9P1W9 whole entry, looked up): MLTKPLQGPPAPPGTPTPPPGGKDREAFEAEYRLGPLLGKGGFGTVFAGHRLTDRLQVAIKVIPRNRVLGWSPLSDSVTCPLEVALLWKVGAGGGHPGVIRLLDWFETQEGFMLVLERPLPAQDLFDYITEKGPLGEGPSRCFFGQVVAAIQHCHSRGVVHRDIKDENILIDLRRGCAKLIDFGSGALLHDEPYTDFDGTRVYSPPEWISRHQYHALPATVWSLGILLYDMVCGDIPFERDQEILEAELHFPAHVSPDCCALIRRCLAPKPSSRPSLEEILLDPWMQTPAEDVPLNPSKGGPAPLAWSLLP

IKBKB (human) = IKBKB (human) (UniProt O14920)
IKBKB (human), sequence (O14920 whole entry, looked up): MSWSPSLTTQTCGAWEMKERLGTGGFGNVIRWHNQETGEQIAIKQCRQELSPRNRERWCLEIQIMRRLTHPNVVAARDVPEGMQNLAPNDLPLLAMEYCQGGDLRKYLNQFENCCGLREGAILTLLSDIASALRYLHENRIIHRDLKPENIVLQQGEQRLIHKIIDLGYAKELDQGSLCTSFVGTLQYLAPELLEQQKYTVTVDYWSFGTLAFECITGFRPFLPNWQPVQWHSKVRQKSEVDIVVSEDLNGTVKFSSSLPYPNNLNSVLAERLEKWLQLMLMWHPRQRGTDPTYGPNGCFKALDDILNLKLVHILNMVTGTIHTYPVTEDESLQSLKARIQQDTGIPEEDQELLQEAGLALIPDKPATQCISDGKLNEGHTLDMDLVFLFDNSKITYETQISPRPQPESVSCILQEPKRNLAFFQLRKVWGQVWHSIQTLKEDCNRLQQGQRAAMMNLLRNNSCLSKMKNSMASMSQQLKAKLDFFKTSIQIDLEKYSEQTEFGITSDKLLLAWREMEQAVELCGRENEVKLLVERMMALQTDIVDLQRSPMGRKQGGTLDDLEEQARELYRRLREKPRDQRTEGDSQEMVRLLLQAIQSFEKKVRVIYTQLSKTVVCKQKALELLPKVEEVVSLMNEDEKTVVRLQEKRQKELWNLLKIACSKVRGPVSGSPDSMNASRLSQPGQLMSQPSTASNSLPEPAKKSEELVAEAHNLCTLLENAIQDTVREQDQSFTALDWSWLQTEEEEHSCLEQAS

STK4 (human) = STK4 (human) (UniProt Q13043)
FLT1 (human) = FLT1 (human) (UniProt P17948)
EPHA1 (human) = EPHA1 (human) (UniProt P21709)
LIMK1 (human) = LIMK1 (human) (UniProt P53667)
JAK2 JH1 JH2 (human) = JAK2 JH1 JH2 (human) (UniProt O60674)
NTRK3 (human) = NTRK3 (human) (UniProt Q16288)
NTRK3 (human), sequence (Q16288 whole entry, looked up): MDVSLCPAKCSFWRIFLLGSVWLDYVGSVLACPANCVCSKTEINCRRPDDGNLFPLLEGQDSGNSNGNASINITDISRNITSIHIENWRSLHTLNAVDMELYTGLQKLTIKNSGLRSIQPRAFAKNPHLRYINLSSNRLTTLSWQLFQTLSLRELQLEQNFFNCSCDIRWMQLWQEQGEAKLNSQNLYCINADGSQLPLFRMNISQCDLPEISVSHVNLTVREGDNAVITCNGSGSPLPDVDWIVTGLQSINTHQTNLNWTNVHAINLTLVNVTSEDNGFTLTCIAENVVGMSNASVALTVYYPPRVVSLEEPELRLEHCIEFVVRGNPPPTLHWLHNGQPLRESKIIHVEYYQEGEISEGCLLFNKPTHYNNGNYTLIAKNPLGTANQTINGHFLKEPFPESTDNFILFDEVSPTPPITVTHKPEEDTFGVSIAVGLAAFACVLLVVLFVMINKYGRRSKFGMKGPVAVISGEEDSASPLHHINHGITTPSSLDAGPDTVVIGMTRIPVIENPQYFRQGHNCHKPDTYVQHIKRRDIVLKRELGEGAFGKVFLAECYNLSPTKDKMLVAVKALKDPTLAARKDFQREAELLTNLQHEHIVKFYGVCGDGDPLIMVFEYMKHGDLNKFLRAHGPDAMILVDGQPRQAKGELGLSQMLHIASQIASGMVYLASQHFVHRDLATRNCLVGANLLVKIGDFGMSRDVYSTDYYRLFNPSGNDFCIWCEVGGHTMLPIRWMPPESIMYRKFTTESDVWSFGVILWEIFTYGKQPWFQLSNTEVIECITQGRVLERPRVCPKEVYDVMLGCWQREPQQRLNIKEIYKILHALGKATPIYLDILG

CAMK2G (human) = CAMK2G (human) (UniProt Q13555)
PRKCI (human) = PRKCI (human) (UniProt P41743)
FGFR1 (human) = FGFR1 (human) (UniProt P11362)
YES1 (human) = YES1 (human) (UniProt P07947)
MATK (human) = MATK (human) (UniProt P42679)
WNK3 (human) = WNK3 (human) (UniProt Q9BYP7)
PLK3 (human) = PLK3 (human) (UniProt Q9H4B4)
DAPK2 (human) = DAPK2 (human) (UniProt Q9UIK4)
DMPK (human) = DMPK (human) (UniProt Q09013)
BRSK1 (human) = BRSK1 (human) (UniProt Q8TDC3)
AURKA (human) = AURKA (human) (UniProt O14965)
CDK1 CCNA2 (human) = CDK1 CCNA2 (human) (UniProt P06493+P20248)
RPS6KA1 KD1 KD2 (human) = RPS6KA1 KD1 KD2 (human) (UniProt Q15418)
KDR (human) = KDR (human) (UniProt P35968)
PAK3 (human) = PAK3 (human) (UniProt O75914)
PAK4 (human) = PAK4 (human) (UniProt O96013)
BLK (human) = BLK (human) (UniProt P51451)
BLK (human), sequence (P51451 whole entry, looked up): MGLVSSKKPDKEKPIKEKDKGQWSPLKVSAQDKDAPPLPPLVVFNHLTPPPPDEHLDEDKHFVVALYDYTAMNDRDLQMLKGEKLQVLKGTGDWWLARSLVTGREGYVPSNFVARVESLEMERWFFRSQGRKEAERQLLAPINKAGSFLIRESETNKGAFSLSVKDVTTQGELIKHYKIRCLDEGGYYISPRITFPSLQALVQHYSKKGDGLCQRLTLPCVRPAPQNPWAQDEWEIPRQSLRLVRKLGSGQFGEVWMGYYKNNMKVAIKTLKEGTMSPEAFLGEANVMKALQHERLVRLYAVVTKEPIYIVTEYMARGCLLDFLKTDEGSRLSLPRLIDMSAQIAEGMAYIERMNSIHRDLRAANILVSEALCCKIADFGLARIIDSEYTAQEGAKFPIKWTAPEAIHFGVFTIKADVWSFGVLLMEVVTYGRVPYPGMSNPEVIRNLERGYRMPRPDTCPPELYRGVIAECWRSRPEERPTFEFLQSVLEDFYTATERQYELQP

CAMK4 (human) = CAMK4 (human) (UniProt Q16566)
CHEK2 (human) = CHEK2 (human) (UniProt O96017)
MAPK9 (human) = MAPK9 (human) (UniProt P45984)
MAP2K1 (human) = MAP2K1 (human) (UniProt Q02750)
PTK2 (human) = PTK2 (human) (UniProt Q05397)
PTK2 (human), sequence (Q05397 whole entry, looked up): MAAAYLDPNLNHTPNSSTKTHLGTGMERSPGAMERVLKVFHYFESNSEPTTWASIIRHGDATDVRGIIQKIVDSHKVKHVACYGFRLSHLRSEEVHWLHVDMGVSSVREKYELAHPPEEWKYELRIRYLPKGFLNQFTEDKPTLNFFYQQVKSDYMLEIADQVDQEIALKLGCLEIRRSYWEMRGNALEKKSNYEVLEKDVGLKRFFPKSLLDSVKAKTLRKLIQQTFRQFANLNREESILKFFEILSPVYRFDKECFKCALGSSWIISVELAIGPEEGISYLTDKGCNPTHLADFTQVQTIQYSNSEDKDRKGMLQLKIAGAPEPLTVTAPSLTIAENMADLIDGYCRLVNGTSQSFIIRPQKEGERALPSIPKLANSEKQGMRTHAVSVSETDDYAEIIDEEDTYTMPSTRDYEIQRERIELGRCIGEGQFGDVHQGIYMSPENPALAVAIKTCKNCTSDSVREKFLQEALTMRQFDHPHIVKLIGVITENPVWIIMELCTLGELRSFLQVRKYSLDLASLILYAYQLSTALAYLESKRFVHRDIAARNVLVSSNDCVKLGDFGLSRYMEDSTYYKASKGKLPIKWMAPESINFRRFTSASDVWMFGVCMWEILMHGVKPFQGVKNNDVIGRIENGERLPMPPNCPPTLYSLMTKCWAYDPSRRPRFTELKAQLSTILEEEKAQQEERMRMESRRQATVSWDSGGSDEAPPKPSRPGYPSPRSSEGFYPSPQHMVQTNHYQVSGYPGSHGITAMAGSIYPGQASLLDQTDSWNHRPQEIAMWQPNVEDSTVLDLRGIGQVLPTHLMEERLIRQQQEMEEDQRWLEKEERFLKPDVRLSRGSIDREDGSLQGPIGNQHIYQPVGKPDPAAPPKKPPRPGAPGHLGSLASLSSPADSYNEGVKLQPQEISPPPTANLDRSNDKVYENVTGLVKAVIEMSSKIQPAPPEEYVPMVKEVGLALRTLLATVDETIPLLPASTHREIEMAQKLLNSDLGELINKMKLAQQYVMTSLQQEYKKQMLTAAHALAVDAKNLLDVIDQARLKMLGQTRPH

EPHA2 (human) = EPHA2 (human) (UniProt P29317)
ABL2 (human) = ABL2 (human) (UniProt P42684)
DYRK2 (human) = DYRK2 (human) (UniProt Q92630)
DYRK2 (human), sequence (Q92630 whole entry, looked up): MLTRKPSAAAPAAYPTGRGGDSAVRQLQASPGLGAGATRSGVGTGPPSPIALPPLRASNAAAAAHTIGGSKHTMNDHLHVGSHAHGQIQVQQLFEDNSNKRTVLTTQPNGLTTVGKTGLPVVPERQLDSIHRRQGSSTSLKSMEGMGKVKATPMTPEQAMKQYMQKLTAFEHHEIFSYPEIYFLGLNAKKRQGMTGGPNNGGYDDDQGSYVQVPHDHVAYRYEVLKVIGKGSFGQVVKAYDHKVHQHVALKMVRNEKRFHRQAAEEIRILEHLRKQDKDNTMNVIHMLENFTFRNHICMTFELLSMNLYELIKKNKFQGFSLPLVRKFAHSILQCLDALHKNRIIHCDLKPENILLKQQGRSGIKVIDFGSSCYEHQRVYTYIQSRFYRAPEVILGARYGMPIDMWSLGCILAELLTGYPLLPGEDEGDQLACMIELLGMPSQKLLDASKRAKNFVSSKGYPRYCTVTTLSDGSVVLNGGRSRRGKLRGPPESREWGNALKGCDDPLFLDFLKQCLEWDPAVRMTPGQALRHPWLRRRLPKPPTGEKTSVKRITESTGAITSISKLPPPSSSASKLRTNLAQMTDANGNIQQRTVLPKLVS

SMILES	residual activity (PRKCG (human)) [%]	residual activity (MERTK (human)) [%]	residual activity (NTRK1 (human)) [%]	residual activity (GRK4 (human)) [%]	residual activity (EPHA8 (human)) [%]	residual activity (TEK (human)) [%]	residual activity (PIM2 (human)) [%]	residual activity (IKBKB (human)) [%]	residual activity (STK4 (human)) [%]	residual activity (EPHA1 (human)) [%]	residual activity (LIMK1 (human)) [%]	residual activity (NTRK3 (human)) [%]	residual activity (CAMK2G (human)) [%]	residual activity (PRKCI (human)) [%]	residual activity (WNK3 (human)) [%]	residual activity (PLK3 (human)) [%]	residual activity (DAPK2 (human)) [%]	residual activity (DMPK (human)) [%]	residual activity (CDK1 CCNA2 (human)) [%]	residual activity (RPS6KA1 KD1 KD2 (human)) [%]	also measured
O=C1Nc2cc(Br)ccc2/C1=C1/Nc2ccccc2/C1=N\O	90.9	79.4	34.5	90.1	97.6	96.7	95.5	85.4	22.5	98.5	51.7	4.98	28.3	97.3	93.8	95.3	91	124	59.7	47.2	residual activity (FGR (human)): 2.99%; residual activity (KIT (human)): 42.3%; residual activity (AXL (human)): 57.7%; residual activity (FLT1 (human)): 75.1%; residual activity (JAK2 JH1 JH2 (human)): 93.8%; residual activity (FGFR1 (human)): 45.1%; residual activity (YES1 (human)): 15.8%; residual activity (MATK (human)): 99.6%; residual activity (BRSK1 (human)): 14.6%; residual activity (AURKA (human)): 17.1%; residual activity (KDR (human)): 64.2%; residual activity (PAK3 (human)): 99.7%; residual activity (PAK4 (human)): 95.3%; residual activity (BLK (human)): 11.3%; residual activity (CAMK4 (human)): 96.3%; residual activity (CHEK2 (human)): 48.3%; residual activity (MAPK9 (human)): 80.3%; residual activity (MAP2K1 (human)): 103%; residual activity (PTK2 (human)): 89%; residual activity (EPHA2 (human)): 70.9%
COc1cc2ncnc(Nc3ccc(F)c(Cl)c3)c2cc1OCCCN1CCOCC1	84.2	95.9	103	91	84.5	96.2	96.2	86.5	101	87.4	90	103	128	96.9	102	103	93.2	90.1	101	97.3	residual activity (FGR (human)): 70.1%; residual activity (AXL (human)): 88.8%; residual activity (FLT1 (human)): 98.3%; residual activity (JAK2 JH1 JH2 (human)): 99.8%; residual activity (ABL2 (human)): 72%; residual activity (FGFR1 (human)): 96.4%; residual activity (YES1 (human)): 74.4%; residual activity (MATK (human)): 86.4%; residual activity (DYRK2 (human)): 98.2%; residual activity (BRSK1 (human)): 92.5%; residual activity (AURKA (human)): 95.3%; residual activity (PAK3 (human)): 106%; residual activity (PAK4 (human)): 90.2%; residual activity (BLK (human)): 87.7%; residual activity (CAMK4 (human)): 93.3%; residual activity (CHEK2 (human)): 84%; residual activity (MAPK9 (human)): 95.5%; residual activity (MAP2K1 (human)): 107%; residual activity (PTK2 (human)): 103%; residual activity (EPHA2 (human)): 85.7%
Clc1ccc(Nc2nnc(Cc3ccncc3)c3ccccc23)cc1	93.3	116	98.7	91.3	100	97.5	95.8	85.6	105	96	98.9	92.7	115	94.2	99.1	100	91.7	102	105	113	residual activity (FGR (human)): 96.8%; residual activity (AXL (human)): 98.3%; residual activity (JAK2 JH1 JH2 (human)): 106%; residual activity (ABL2 (human)): 101%; residual activity (FGFR1 (human)): 97.2%; residual activity (YES1 (human)): 93%; residual activity (MATK (human)): 78.1%; residual activity (DYRK2 (human)): 103%; residual activity (BRSK1 (human)): 93.1%; residual activity (AURKA (human)): 79%; residual activity (PAK3 (human)): 107%; residual activity (PAK4 (human)): 95.8%; residual activity (BLK (human)): 105%; residual activity (CAMK4 (human)): 93.4%; residual activity (CHEK2 (human)): 98.5%; residual activity (MAPK9 (human)): 97.5%; residual activity (MAP2K1 (human)): 100%; residual activity (PTK2 (human)): 101%; residual activity (EPHA2 (human)): 92.5%
Nc1nc(Nc2ccc(S(N)(=O)=O)cc2)nn1C(=O)c1c(F)cccc1F	81.3	70.2	98.8	94.7	109	84.2	113	105	19.9	73.7	16.6	37.6	104	87.6	98.3	91.3	107	93.2	10.3	42.1	residual activity (FGR (human)): 63.5%; residual activity (KIT (human)): 81.7%; residual activity (AXL (human)): 94.2%; residual activity (FLT1 (human)): 90.7%; residual activity (JAK2 JH1 JH2 (human)): 19.2%; residual activity (ABL2 (human)): 53.9%; residual activity (YES1 (human)): 50.6%; residual activity (MATK (human)): 104%; residual activity (DYRK2 (human)): 112%; residual activity (BRSK1 (human)): 49.2%; residual activity (KDR (human)): 64.6%; residual activity (PAK4 (human)): 90%; residual activity (BLK (human)): 90.1%; residual activity (CAMK4 (human)): 96.8%; residual activity (CHEK2 (human)): 63.6%; residual activity (MAPK9 (human)): 93.7%; residual activity (MAP2K1 (human)): 93.9%; residual activity (PTK2 (human)): 95.5%; residual activity (EPHA2 (human)): 80.9%
C#Cc1cccc(Nc2ncnc3cc(OCCOC)c(OCCOC)cc23)c1	84.1	99	102	89.6	89.7	94	97.9	83.5	97.4	94.5	90.4	96	115	99	101	102	92.5	96.9	99.6	97.6	residual activity (FLT1 (human)): 87.5%; residual activity (FGFR1 (human)): 99.1%; residual activity (AURKA (human)): 75.3%; residual activity (PAK3 (human)): 106%; residual activity (PAK4 (human)): 91.8%; residual activity (BLK (human)): 79.4%; residual activity (CAMK4 (human)): 94.8%; residual activity (CHEK2 (human)): 100%; residual activity (MAP2K1 (human)): 105%; residual activity (PTK2 (human)): 108%; residual activity (EPHA2 (human)): 91.3%
